Laboratory results taken from patent publication US6605704B1, “Plant-origin regulator protein and nucleic acid encoding the same” (Japan Tobacco Inc., priority 1999, dated 2003).
Where two headings read alike, the source gives them in different places.

Key:
mRNA of ZmCip1 [1] = experiment: Northern analysis after t-zeatin, benzyladenine or abscisic acid treatment of cut leaves; assay type: cell-based, maize (Zea mays L.cv. Golden Cross Bantam T51); details: 100 or 180 minutes, nitrogen-deficient leaves
Protocol: (§1) The cut leaves of the maize cultivated under the low-nitrogen condition as mentioned above was treated with 5 μM t-zeatin or with water for 0 minute, 30 minutes, 45 minutes, 60 minutes or 90 minutes, and the ⅓ portions from the distal ends of the leaves was collected. After freezing the collected leaves with liquid nitrogen, RNAs were extracted by the guanidine thiocyanate/cesium chloride method. Ten micrograms of the obtained RNAs were fractionated by formaldehyde gel (1%) electrophoresis and the resultant was transferred to a nylon membrane. Hybridization was performed using ZmCip1 cDNA or maize ubiquitin gene as a probe.
(10) The cut leaves of the maize cultivated under the low-nitrogen condition as mentioned above were treated with 5 μM t-zeatin, 5 μM benzyladenine, 10 μM±abscisic acid or with water for 100 minutes or 180 minutes, and Northern analysis was performed as in (4).

mRNA of ZmCip 1 = experiment: Northern analysis of induction of expression of CIP1 by cytokinin treatment and cycloheximide treatment; assay type: cell-based, maize (Zea mays L.cv. Golden Cross Bantam T51); details: as printed under experiment (8), nitrogen-deficient maize green leaves
Protocol: (§2) The cut leaves of the maize cultivated under the low-nitrogen condition as mentioned above were treated with 16 mM NaNO3 solution or with 0.08 mM NaNO3 solution for 0 hour, 2 hours, 5 hours, […] or 24 hours and Northern analysis was carried out in the same manner as in (4) except that the weight of the RNAs applied to each gel was 20 μg, respectively, and that a non-coding region of ZmCip1 was used as a probe.
The cut leaves of the maize cultivated under the low-nitrogen condition as mentioned above were treated (i) with water for 60 minutes and then with water for 90 minutes, (ii) with water for 60 minutes and then with 5 μM t-zeatin for 90 minutes, (iii) with 20 μg/ml of cycloheximide for 60 minutes and then with 20 μg/ml cycloheximide and 5 μM t-zeatin for 90 minutes, or (iv) with 20 μg/ml of cycloheximide for 60 minutes and then with 20 μg/ml of cycloheximide for 90 minutes, and Northern analysis was performed in the same manner as in (5) except that the amount of the RNAs applied to each gel was 30 μg.

mRNA of ZmCip1 [2] = experiment: Northern analysis of induction of expression of CIP1 by ammonium ion, cut leaves; assay type: cell-based, maize (Zea mays L.cv. Golden Cross Bantam T51); details: 6 mM NH4+, nitrogen-deficient maize green leaves
Protocol: as §2
The cut leaves of the maize cultivated under the low-nitrogen condition as mentioned above were treated with 6 mM NH4^+ solution or with 0.08 mM NaNO3 solution for 0 to 7 hours and Northern analysis was carried out in the same manner as in (5) except that the weight of the RNAs applied to each gel was 15 μg.

mRNA of ZmCip1 [3] = system: mRNA of ZmCip1
Protocol: as §1, §2

mRNA of ZmCip1 [4] = details: 16 mM NaNO3, 5 hours after treatment
Protocol: as §2
The maize cultivated under the low-nitrogen condition as mentioned above was treated with 16 mM NaNO3 solution or with 0.08 mM NaNO3 solution for 5 hours, and its leaf blades, leaf sheaths and roots were separately collected, followed by Northern analysis in the same manner as in (5) except that the amount of the RNAs from leaf sheaths or roots applied to each gel was 30 μg.

mRNA of ZmCip1 [5] = details: 5 μM, nitrogen-deficient maize green leaves
Protocol: as §1

mRNA of ZmCip1 [6] = details: 10^−11 to 10^−7 M tested, 100 or 180 minutes, cut leaves
Protocol: as §2

mRNA of ZmCip1 [7] = details: 5 μM, 100 minutes, nitrogen-deficient leaves
Protocol: as §2
The cut leaves of the maize cultivated under the low-nitrogen condition as mentioned above were treated with 5 μM t-zeatin, 5 μM zeatin-O-glucoside or with water for 100 minutes, and Northern analysis was performed in the same manner as in (5), except that the amount of the RNAs applied to each gel was 15 μg.

Protocol for ZmCip1 gene: (3) Assay of Induction of Expression of CIP 1 by Cytokinin Treatment (Run-Off Transcription Assay) Run-off transcription assay for expression of ZmCip1 gene was carried out. Nuclei were isolated from maize mesophyll cells and its RNA synthesis activity was measured according to a reported method (I. Suzuki, C. Cretin, T. Omata, T. Sugiyama, Plant Physiol.105:1223,1994). The RNAs synthesized by the isolated nuclei were fractionated by formaldehyde gel electrophoresis and the fractionated RNAs were transferred to a nylon membrane, followed by hybridization with ^32P-labeled ZmCip 1 cDNA or C4Ppc1 cDNA. The intensity of the detected signal was measured by Bio Imaging Analyzer (BAS2000, Fuji Film).

CC1=CC(=O)CC(C)(C)[C@@]1(O)/C=C/C(C)=C\C(=O)O [abscisic acid]
induction of expression of ZmCip1 mRNA (mRNA of ZmCip1 [1]; 10 μM): slightly induced

N [ammonium ion]
time after treatment at which ZmCip1 mRNA was confirmed (mRNA of ZmCip 1): 5 h
time after treatment at which the gene was strongly expressed (mRNA of ZmCip 1): 6 to 7 h
time after treatment at which ZmCip1 mRNA was confirmed (mRNA of ZmCip1 [2]): 5 h
time after treatment at which the gene was strongly expressed (mRNA of ZmCip1 [2]): 6 to 7 h

c1ccc(CNc2ncnc3nc[nH]c23)cc1 [benzyladenine]
induction of expression of ZmCip1 mRNA (mRNA of ZmCip1 [1]; 5 μM): induced

O=[N+]([O-])[O-].[Na+] [nitrate ion, NaNO3]
expression of the gene 24 hours after the treatment (mRNA of ZmCip1 [3]; 16 mM NaNO3, 24 hours): scarcely observed
time after treatment at which accumulation of ZmCip1 mRNA was confirmed (mRNA of ZmCip1 [3]; 16 mM NaNO3, nitrogen-deficient green leaves): 5 to 6 h
accumulation of ZmCip1 mRNA in green leaves (mRNA of ZmCip1 [4]; nitrogen-deficient maize green leaves): confirmed
expression of ZmCip1 mRNA in roots (mRNA of ZmCip1 [4]; roots): scarcely observed

C/C(=C\CNc1ncnc2[nH]cnc12)CO [t-zeatin]
time after treatment at which accumulation of ZmCip1 mRNA was confirmed (mRNA of ZmCip1 [5]): 30 min
time after treatment at which the gene was strongly expressed (mRNA of ZmCip1 [5]): 45 to 90 min
induction of expression of ZmCip1 mRNA (mRNA of ZmCip1 [1]; 5 μM): induced
treatment time that causes transcription of ZmCip1 mRNA (ZmCip1 gene; cut leaves of maize cultivated under low-nitrogen condition, nuclei from mesophyll cells): 20 min
timing of ZmCip1 transcription compared with transcription of C4Ppc1 mRNA (ZmCip1 gene; same leaves treated with t-zeatin): much earlier stage
low level of t-zeatin at which expression of ZmCip1 mRNA was induced (mRNA of ZmCip1 [6]): 10^−9 M
induction of expression of ZmCip1 mRNA (mRNA of ZmCip1 [7]): induced

zeatin-O-glucoside
induction of expression of ZmCip1 mRNA (mRNA of ZmCip1 [7]): induced
